Experimental data from patent publication US20240083933A1, “DISACCHARIDES FOR TREATING BONE DISEASES” (UNIVERSITE DE PICARDIE JULES VERNE, priority 2020, published 2024).

Test system: HOb cells
Test: Cytotoxicity, MTT test
Type: cell-based, human
Conditions: 30 μM, culture or mineralizing medium, D2, D4, D7, D14
Description: In order to study the toxicity of DP2, cell viability was determined using the MTT test (3-(4,5-dimethyl-2-thiazolyl)-2,5-diphenyl-2H-tetrazolium bromide). The HOb cells were seeded in 48-well plates (10,000 cells per well), two days later the cells were treated with DP2 30 μM and the MTT test was carried out on D2, D4, 7 and D14 post-treatment.
After washing the cells with DMEM (Dulbecco's Modified Eagle Medium) without phenol red, 250 μl of the diluted MTT solution were added to each well and the plate is incubated at 37° C. with 5% CO2 for 1 hour. The amount of MTT reduced in formazan is proportional to living cells. The purple formazan crystals were solubilized in 220 μl of DMSO and after stirring to homogenize the coloration, the absorbance was measured at 560 nm (Envision, PerkinElmer). The cytotoxicity was assessed by comparing the cell viability between the control group and the experimental group.
Before determining whether our molecule alters the survival of osteoblastic cells, its cytotoxicity was tested on the HOb cells by the MTT and WST-1 tests. The cells were treated with DP2 at 30 μM with the culture medium (Ctrl) or the mineralizing medium (Min) for 2, 4, 7 and 14 days (D).

CCCO[C@H]1OC(CO)[C@@H](O[C@@H]2OC(CO)[C@@H](O)C(O)C2NC(C)=O)C(O)C1OC(C)=O (stereo partly drawn) [DP2, n-propyl, 2-O-acetyl-α-D-Glucopyranoside, 4-O-(2-acetamido-2-deoxy-β-D-glucopyranosyl)] was tested, and the “cell viability, MTT test” value was “no significant difference”.
